Data reported in patent US12409172B2, “Dosage regimen” (UNION therapeutics A/S, priority 2023, dated 2025).

Columns and labels:
[1] = test system: human peripheral blood mononuclear cells PBMC; details: in vitro; cited from earlier work
[2] = test system: adults with moderate to severe atopic dermatitis; experiment: Phase 2b study in atopic dermatitis (Example 8): treatment emergent adverse events; format: in vivo, human
From the text: The exploratory objectives are to: • Evaluate pharmacokinetic (PK) and pharmacodynamic parameters relevant to AD • Evaluate the effect of orismilast on the pulmonary status and course of the disease in patients with asthma Primary Endpoint • Percentage change in Eczema Area and Severity Index (EASI) score from Baseline at Week 16. […]

SMILES: O=C(Cc1c(Cl)c[n+]([O-])cc1Cl)c1ccc(OC(F)F)c2c1OC1(CCS(=O)(=O)CC1)O2 [orismilast, 2-(3,5-dichloro-1-oxidopyridin-1-ium-4-yl)-1-[7-(difluoromethoxy)-1′,1′-dioxospiro[1,3-benzodioxole-2,4′-thiane]-4-yl]ethanone]
- secretion of Th1 (TNFα and IFNγ), Th17 (IL-22 and IL-23) and Th2 (IL-4, IL-5, and IL-13) related cytokines in PBMC [1]: inhibited
- patients experiencing any Treatment Emergent Adverse Event (TEAE) through Week 16 ([2]; 20 mg BID): 76%
- patients experiencing any Treatment Emergent Adverse Event (TEAE) through Week 16 ([2]; 30 mg BID): 79%
- patients experiencing any Treatment Emergent Adverse Event (TEAE) through Week 16 ([2]; 40 mg BID): 86%
